Source: patent publication US11278586B2, “Highly absorbable oral tyrosine formulation” (Kao Corporation, priority 2017, dated 2022)
Where a SMILES comes first, the peptide text is derived from it.

Assays:
[1] = water at 20° C.; Fust et al. (2001) J. Nutr.; cited from earlier work
[2] = Bioabsorbability of tyrosine after oral administration to mice (plasma amino acids by LC-MS/MS); type: in vivo, C57B6J Mice; details: oral 0.55 mmol/kg body weight; for administered dipeptide detected in the plasma: at any time after administration (15-60 min), results not shown
Protocol: C57B6J Mice (CLEA Japan, Inc., 8 weeks old, male) were acclimatized for 1 week, and then the mice were divided into 4 groups with similar body weights (N=4 for each group). Each of amino acids dissolved in water was orally administered to the mice by sonde at the following dose in Table 1. Venous blood was collected from the fundus using a heparin-treated micro hematocrit tube (VITREX) under isoflurane anesthesia before administration and 15, 30, 45, and 60 minutes after administration. These were centrifuged (8,000×g, 10 minutes, 4° C.) to obtain plasma. Thereafter, a 15% by mass of aqueous sulfosalicylic acid solution which was three times amount of the plasma was added thereto, mixed, and centrifuged (8,000×g, 10 minutes, 4° C.) to remove the protein, and the obtained plasma was used as a sample for analysis. Quantification of amino acids in the sample for analysis was performed using LC-MS/MS. Infinity 1290 (Agilent) was used for liquid chromatography, and 3200 QTRAP (AB Sciex) was used for mass spectrometry.
A tyrosine administration group and a tyrosine and glycine (each equimolar amount) mixed administration group were set as controls for the glycyltyrosine administration group. An alanyltyrosine administration group was also set for effect comparison.

Solubility in water = type: physicochemical; details: dose of 0.55 mmol/kg body weight, an amount equivalent to 10 times the solubility of tyrosine
Protocol: Glycyltyrosine and alanyltyrosine are known to have high solubility as compared to tyrosine, and the solubility thereof in water at 20° C. is about 75 times and about 36 times that of tyrosine, respectively (Fust et al., (2001) J. Nutr.). […] In spite of this, an excellent action of improving bioabsorbability of tyrosine was confirmed only in the oral administration/ingestion of glycyltyrosine. Therefore, the action is considered not due to the improvement in solubility, but an effect unique to glycyltyrosine.

Row | Structure (SMILES) | solubility in water relative to that of tyrosine [1] | blood tyrosine concentration compared with the tyrosine administration group ([2]; 15 minutes after administration, Dunnett p<0.01, FIG. 1) | maximum blood concentration (Cmax) of tyrosine compared to the tyrosine administration group ([2]; FIG. 2) | administered dipeptide detected in the plasma [2] | blood glycine concentration versus the tyrosine and glycine mixed administration group ([2]; at any time after administration, FIG. 1) | area under the increased blood concentration-time curve (iAUC) of tyrosine compared to the tyrosine administration group ([2]; until 60 minutes after administration, FIG. 2) | dissolution of the administration sample in water (Solubility in water)
1 | NCC(=O)N[C@@H](Cc1ccc(O)cc1)C(=O)O [glycyltyrosine, Glycyl-L-tyrosine dihydrate] (H-Gly-Tyr-OH) | about 75 times | significantly higher | significantly high values | not detected | no significant difference | significantly high values | completely dissolved
2 | C[C@H](N)C(=O)N[C@@H](Cc1ccc(O)cc1)C(=O)O [alanyltyrosine, L-Alanyl-L-tyrosine, reference compound] (H-Ala-Tyr-OH) | about 36 times |  |  | not detected |  |  | completely dissolved
